Data as given in patent EP4789670A1, “PREPARATION CONTAINING URACIL DERIVATIVE” (Shionogi & Co., Ltd, priority 2023, dated 2025).
In brackets after ≈: the same amount, converted by molar mass.

Key:
SARS-CoV-2 = assay: Cytopathic effect (CPE) suppression effect confirmation test using HEK293T/ACE2-TMPRSS2 cells; assay type: cell-based; settings: Severe acute respiratory syndrome coronavirus 2, HEK-293T, 72 h, SARS-CoV-2 200-600 TCID50/well, cultured 3 days, CellTiter-Glo 2.0, read-out: 50% SARS-CoV-2 infected cell death inhibitory concentration (EC50)
Procedure: Test Example 1: Cytopathic Effect (CPE) Suppression Effect Confirmation Test Using HEK293T Cells Expressing Human TMPRSS2, ACE2 (HEK293T/ACE2-TMPRSS2 Cells)
The sample to be tested is diluted in advance to an appropriate concentration with DMSO, and a 2- to 5-fold series of serial dilutions is prepared and then dispensed into a 384-well plate.
HEK293T/ACE2-TMPRSS2 cells (GCP-SL222, 5×10^3 cells/well) and SARS-CoV-2 (200-600 TCID50/well) are mixed in a medium (MEM, 2% FBS, penicillin-streptomycin), the mixture is dispensed into the wells in which the sample to be tested has been introduced, and then the cells are cultured for 3 days in a CO2 incubator.
The plate that has been cultured for 3 days is returned to room temperature, subsequently CellTiter-Glo (registered trademark) 2.0 is dispensed into each well, and the plate is mixed using a plate mixer. After standing for a predetermined period of time, the luminescence signal (Lum) is measured using a plate reader.

physchem = assay type: physicochemical
Procedure: The solid dispersion obtained in Example 4D and the anhydrous crystal alone of the compound represented by Formula (I) (Example 4F-1) were added to various test media to prepare suspensions of 30 to 50 mL. The prepared suspensions were placed in centrifuge tubes and shaken at a shaking speed of 100 rpm or higher. After 60 minutes from the start of shaking, 5 mL of each suspension was collected and immediately filtered through a filter (Chromadisc, 0.45 µm, 25A) to obtain test samples.

SMILES | EC50 (SARS-CoV-2) [nM] | solubility at 1 h (physchem; diluted mcilvaine buffer, pH 4) [µg/mL] | solubility at 1 h (physchem; jp first dissolution test medium, pH 1.2) [µg/mL] | solubility at 1 h (physchem; jp second dissolution test medium, pH 6.8) [µg/mL] | solubility at 1 h (physchem; purified water) [µg/mL]
N#CCn1c(N2CC3(C2)CC(F)(F)C3)c(-c2ccc(F)c(Cl)c2)c(=O)n(-c2cncc(Cl)c2)c1=O [Compound (I)] | 1.66 |  |  |  | 
N#CCn1c(N2CC3(C2)CC(F)(F)C3)c(-c2ccc(F)c(Cl)c2)c(=O)n(-c2cncc(Cl)c2)c1=O [Example 4F-1] |  | 0.64 (≈ 1.23 µM) | 1.08 (≈ 2.07 µM) | 0.61 (≈ 1.17 µM) | 0.71 (≈ 1.36 µM)
